Reference: patent publication US7632972B2, “Compounds and methods for treatment of cancer and modulation of programmed cell death for melanoma and other cancer cells” (The Board of Trustees of the University of Illionis, priority 2003, dated 2009)
Where two headings read alike, the source gives them in different places.

What was measured:
[1] = system: U-937 cell line; experiment: Death induction by amide library, MTS dye reduction; type: cell-based, human; conditions: Homo sapiens
Procedure: Compounds were tested in a U937 cell assay as previously described by Hergenrother et al. (see Hergenrother 2003 and U.S. 60/516,566).
The ability of the 100 amides thus produced to induce death in cancer cells was assessed by an assay based on the reduction of the MTS (3-(4,5-dimethylthiazol-2-yl)-5-(3-carboxymethoxyphenyl)-2-(4-sulfophenyl)-2H-tetrazolium, inner salt) dye. This tetrazolium dye is rapidly converted to the formazan product by living cells, and therefore provides a sensitive readout of cell life or death that can be monitored at 490 nm.

[2] = system: human bone marrow cells; experiment: Toxicity to bone marrow cells of a healthy donor, MTS bioreduction after 72 hours; type: cell-based; conditions: Bone marrow cell, Table 13, bone marrow cells of healthy donor
Excerpt: Specificity for cancer cells. The vast majority of anti-cancer drugs are toxic to all rapidly dividing cell types, often leading to deleterious side effects and a reduced therapeutic window. For instance, hematopoietic bone marrow is responsible for the production of red and white blood cells, and the anemia observed upon treatment with certain chemotherapy agents is in a large part due to the toxicity of the anti-cancer drugs on cells in the human bone marrow. Thus, to determine the relative effect of the triphenylamides on melanoma versus normal cells, cells derived from the human bone marrow of a healthy donor were used; measurement of the effect on healthy bone marrow cells can assist in assessing the toxicity of putative anti-cancer agents. (17-20) These cells were treated with increasing concentrations of the compounds shown in Table 13, and cell viability was evaluated after 72 hours using the MTS bioreduction assay. The data in Table 13 indicate that several of the triphenyl amides have selective toxicity to melanoma cells versus the human bone marrow cells.

[3] = system: U-937 cells; experiment: cells; type: cell-based, human; conditions: Homo sapiens; Table 13, U-937
[4] = system: B16-F10; experiment: Death induction in melanoma cell line; type: cell-based, mouse; conditions: Mus musculus, B16-F10; Table 13, B16F10 melanoma; read-out: B16F10
Procedure: (§1) Given the interesting and somewhat unusual trait of G1 arrest, compounds x and y were tested for their ability to induce death in two melanoma cell lines: UACC-62 (human), and B16-F10 (mouse). […] Compounds x and y were also submitted for testing in the NCl 60-cell line assay. […] The triphenylamides (TPAs) induce apoptosis in these melanoma cell lines.

[5] = system: UACC-62; experiment: Death induction in melanoma cell line; type: cell-based, human; conditions: Homo sapiens; Table 13, UACC-62 melanoma; read-out: UACC-62
Procedure: as §1

[6] = system: HL-60 cells; experiment: Determination of IC50 values, cell death by MTS/PMS after 72 h; conditions: Homo sapiens, HL-60, read-out: HL-60
[7] = in vitro; type: cell-based, human; conditions: human
[8] = system: U-937 cells; experiment: Analysis of mitochondria depolarization by flow cytometry (JC-9 dye); type: cell-based, human
Procedure: Further experiments assessed whether the observed death from 12-D, 13-D, and 15-D was due to apoptosis or necrosis.
Analysis of Mitochondria Depolarization by Flow Cytometry: The depolarization of the mitochondrial membrane was measured by the fluorescence emitted by the JC-9 dye (Molecular Probes, Eugene Oreg.). 100 μM of 13-D or 10 μM etoposide in 1 μL of EtOH were added to cell culture flasks containing 50 mL of 10×10^6 U-937 cells/mL. […] 10 μg of the JC-9 dye was added to 1×10^6 cells in 1 mL and incubated at room temperature for 10 min. Cells were washed twice with PBS and resuspended in a final volume of 500 μL PBS. The fluorescence intensity of each cell was determined by flow cytometry at 525 nm (channel 1 green) and 675 nm (channel 4 red). 50,000 cells were analyzed in each experiment. The data was then analyzed using Summit Software (Cytomation, Fort Collins Colo.) and the number of cells within the upper left region, viable cells, was determined.
Apoptotic assays. To determine whether the observed death was due to apoptosis or necrosis, several apoptotic hallmarks were examined. Thus early stage (mitochondrial membrane depolarization), middle stage (caspase-3 like activation, PARP-1 cleavage) and late stage (chromatin condensation, phosphatidylserine exposure, membrane blebbing) biochemical events were monitored. The depolarization of mitochondrial membranes facilitates the release of pro-apoptotic proteins such as cytochrome c and AIF (apoptosis inducing factor) from the mitochondria into the cytosol. Several dyes, including JC-9, have been developed that provide a sensitive readout on this process. […] The release of pro-apoptotic stimuli from the mitochondria initiates a cascade of events that ultimately results in the activation of the “executioner” caspases, typically caspase-3 and caspase-7. The caspase-3-like activity of the cells can be monitored with peptidic substrates. […] PARP-1 cleavage. A final event in apoptosis is the exposure of phosphatidylserine on the outer leaflet of the cell membrane; this event allows for recognition of apoptotic cells by phagocytes, ultimately leading to the engulfment of the apoptotic cell and the recycling of the various cellular components.

[9] = system: U-937 cells; experiment: High-throughput cell death assay on library members (MTS/PMS); type: cell-based, human; conditions: library members at 100 μM, 24 hours
Procedure: A three-tiered system was devised to identify compounds that selectively induce apoptosis in cancer cells. First, all compounds were screened at 100 μM in a high-throughput manner for their ability to induce death in two cancer cell lines, HL-60 (leukemia) and U-937 (lymphoma).
Test compounds were transferred into the wells using a 96-pin transfer apparatus (V & P Scientific, San Diego Calif.) that transfers 0.2 μL of compound. The compounds were made up as 50 mM stock solutions in 100% EtOH, so one transfer gave a final concentration of 100 μM. Controls were performed in which only EtOH (containing no compound) was pin-transferred into wells containing cells. The cells were incubated with the compounds for 24 hours, and then cell death was quantitated.

[10] = system: etoposide induced apoptosis; experiment: Inhibition of etoposide induced apoptosis; type: cell-based
[11] = U-937, hit compounds of first generation library, read-out: IC50 Value-U-937 cells

IC50 [3]	Structure (SMILES)	IC50 [2]	IC50 [4]	IC50 [5]	IC50 [6]	Induction of death in U-937 cells (percentages of cell death) [9]	also measured
	COc1cccc(/C=C/C(=O)Nc2cc(OC)c(OC)c(OC)c2)c1						IC50 [1, 11]: 8 µM
	CCCCCCCCCCCCCCCC(=O)N(C)C(C)C(O)c1ccccc1 (centres unmarked)						IC50 ([1]; U-937, read-out: IC50 Value-U-937 cells): 3.1 µM
	COc1ccc(/C=C/C(=O)NC23CC4CC(CC(C4)C2)C3)c2ccccc12						IC50 [1, 11]: 7.1 µM
1.25 µM	O=C(NC1CCCc2ccccc21)C(c1ccccc1)(c1ccccc1)c1ccccc1 (centres unmarked)	0.5 µM	0.98 µM	1.77 µM	2.21 µM		
0.49 µM	O=C(NC1C2CC3CC(C2)CC1C3)C(c1ccccc1)(c1ccccc1)c1ccccc1 (centres unmarked)	0.32 µM	7.41 µM	15.3 µM	0.92 µM		
0.93 µM	O=C(CC(c1ccccc1)(c1ccccc1)c1ccccc1)NCCc1cccnc1	0.68 µM	1.61 µM	0.7 µM	1.39 µM		
8.16 µM	COc1ccc(CNC(=O)C(c2ccccc2)(c2ccccc2)c2ccccc2)cc1	4.77 µM	0.6 µM	0.69 µM	10.5 µM		
10.8 µM	CC(=O)OC(CNC(=O)C(c1ccccc1)(c1ccccc1)c1ccccc1)c1ccccc1 (centres unmarked)	4 µM	0.8 µM	0.62 µM	16.2 µM		
7.17 µM	COc1ccc(CNC(=O)CC(c2ccccc2)(c2ccccc2)c2ccccc2)c(OC)c1	1.87 µM	0.55 µM	0.52 µM	2.26 µM		
	COc1cc(/C=C/C(=O)NC[C@@H](O)c2ccccc2)ccc1O (stereo in doubt) [Compound 12-D, 3-(4-Hydroxy-3-methoxy-phenyl)-N-(2-hydroxy-2-phenyl-ethyl)-acrylamide]					82%	IC50 at 72 h [7]: 61 µM; observed death due to apoptosis or necrosis [8]: induced some apoptosis, some necrosis
	COc1cc(/C=C/C(=O)NC[C@@H](OC)c2ccc(O)cc2)ccc1O [Compound 9-D, 3-(4-Hydroxy-3-(S)-methoxy-phenyl)-N-[2-(4-hydroxy-phenyl)-2-methoxy-ethyl]-acrylamide]					20%	IC50 at 72 h [7]: 273 µM; activity in assays exploring inhibition of etoposide induced apoptosis [10]: Neither compound 1 nor any library members showed activity
	COc1cc(/C=C/C(=O)NC[C@H](O)c2ccc(O)cc2)ccc1O [Compound 15-D, N-[2-(R)-Hydroxy-2-(4-hydroxy-phenyl)-ethyl]-3-(4-hydroxy-3-methoxy-phenyl)-acrylamide]					89%	IC50 at 72 h [7]: 109 µM; observed death due to apoptosis or necrosis [8]: induced some apoptosis, some necrosis
	COc1cc(/C=C/C(=O)NCCc2ccc(O)cc2)ccc1O [Compound 17-D]					58%	
	COc1ccc(/C=C/C(=O)NCCc2ccc(O)cc2)cc1O [Compound 17-E]					18%	
	COc1cc(/C=C/C(=O)NCCc2ccc(O)cc2)cc(OC)c1OC [Compound 17-F]					9%	
	COc1cc(/C=C/C(=O)NCCc2ccc(O)cc2)cc(OC)c1O [Compound 17-G]					26%	
	COc1cccc(/C=C/C(=O)NCCc2ccc(O)cc2)c1 [Compound 17-H]					41%	
